Assay results taken from paper PMC3222310, “Purification and characterization of hydroquinone dioxygenase from Sphingomonas sp. strain TTNP3” (AMB Express, 2011).
Each block holds one molecule with its values, some of them ahead of it.

How the values were obtained:
[1] = biological target: T1, hydroquinone dioxygenase (HQDO) from Sphingomonas sp. strain TTNP3 (Sphingomonas sp. TTNP3, UniProt F8TW82+F8TW83); assay: residual activity on HQ with inhibitor; assay type: biochemical
T1 construct: gene hqdB; native enzyme purified from nonylphenol-induced cells; untagged; alpha2beta2 heterotetramer, 120 kDa by SEC, bands 38 kDa and 19 kDa; b63 order implies HqdA small and HqdB large, abstract order of identities contradicts
T1 sequence (F8TW83 1-341): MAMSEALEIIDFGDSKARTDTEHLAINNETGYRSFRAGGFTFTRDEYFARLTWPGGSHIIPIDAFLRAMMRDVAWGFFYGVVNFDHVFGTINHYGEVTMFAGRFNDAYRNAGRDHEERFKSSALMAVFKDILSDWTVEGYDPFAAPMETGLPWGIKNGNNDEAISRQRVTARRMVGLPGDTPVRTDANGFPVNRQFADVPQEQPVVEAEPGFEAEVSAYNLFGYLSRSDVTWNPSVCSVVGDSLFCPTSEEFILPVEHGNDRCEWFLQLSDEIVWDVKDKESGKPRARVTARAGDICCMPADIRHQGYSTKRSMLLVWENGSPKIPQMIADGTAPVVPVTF
T1 sequence (F8TW82 1-170): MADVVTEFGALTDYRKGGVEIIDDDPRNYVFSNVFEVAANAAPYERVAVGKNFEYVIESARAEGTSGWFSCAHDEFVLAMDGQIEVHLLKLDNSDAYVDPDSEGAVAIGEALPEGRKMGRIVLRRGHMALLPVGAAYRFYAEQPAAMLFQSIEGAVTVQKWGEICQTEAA
Source text: residual activity on HQ with inhibitor on hydroquinone dioxygenase (HQDO) from Sphingomonas sp. strain TTNP3

purified protein = substrate: Oc1ccc(O)cc1; assay: purified protein; assay type: biochemical, Sphingomonas sp. TTNP3; conditions: air-saturated 50 mM Tris, pH 7.0, 25°C, kcat per heterotetramer, suicide deactivation by substrate

Molecule: O=C1C=CC(=O)C=C1 [Benzoquinone]
- activity at 20 µM [1]: 16 ± 0.3%

Molecule: O=[N+]([O-])c1ccc(O)cc1 [4-Nitrophenol]
- activity at 200 µM [1]: 27 ± 1.2%

Molecule: Oc1ccccc1O [Catechol]
- activity at 200 µM [1]: 93 ± 1.3%

Molecule: Oc1ccccc1 [Phenol]
- activity at 200 µM [1]: 98 ± 1.7%

Molecule: O=C(O)/C=C/c1ccc(O)cc1 [4-Coumaric acid]
- activity at 200 µM [1]: 97 ± 1.9%

Molecule: N#CCc1ccc(O)cc1 [4-Hydroxybenzylcyanide]
- Activity (%) ([1]; 2 µM, substrate HQ, compound named 4-hydroxybenzonitrile in text, 4-hydroxybenzylcyanide in table): 16 ± 0.2%

Molecule: O=C(O)c1ccc(O)c(O)c1 [3,4-Dihydroxybenzoate]
- activity at 200 µM [1]: 94 ± 4.6%

B1: hydroquinone dioxygenase (HQDO) from Sphingomonas sp. strain TTNP3 (Sphingomonas sp. TTNP3) (protein)
chain 1: T1 sequence (F8TW83 1-341)
chain 2: T1 sequence (F8TW82 1-170)
notes: native enzyme purified from nonylphenol-induced cells; untagged; alpha2beta2 heterotetramer, 120 kDa by SEC, bands 38 kDa and 19 kDa; b63 order implies HqdA small and HqdB large, abstract order of identities contradicts
- Km (purified protein): 2.2 ± 0.2 µM
- kcat (purified protein): 13.5 s⁻¹

Further lines, results first:

- activity at 200 µM [1]: 99 ± 0.5%
Molecule: Oc1cccc(O)c1 [Resorcinol]

- activity at 100 µM [1]: 18 ± 7.4%
Molecule: COc1cc(C=O)ccc1O [Vanillin]

- activity at 200 µM [1]: 46 ± 0.4%
Molecule: O=C(O)c1ccc(O)cc1 [4-Hydroxybenzoate]

- activity at 200 µM [1]: 86 ± 1%
Molecule: COc1cc(C(=O)O)ccc1O [Vanillate]

- activity at 200 µM [1]: 62 ± 1%
Molecule: COc1cc(CO)ccc1O [Vanillyl alcohol]

- activity at 80 µM [1]: 98 ± 2.5%
Molecule: O=C(O)/C=C/c1ccc(O)c(O)c1 [Caffeic acid]

- activity at 20 µM [1]: 5%
Molecule: Oc1ccc(S)cc1 [4-Mercaptophenol]
